This is an account of results in patent US11820773B2, “Tricyclic compounds” (ALIGOS THERAPEUTICS, INC., priority 2020, dated 2023).

This test relates to HBV. Put plainly: HBV-DNA antiviral assay using HepG2.117 cells (intracellular HBV DNA by qPCR). Type of test: cell-based, genotype D HBV. To be noted: Hepatitis B virus, 72 h, HBV DNA inhibition, 3 days incubation, 2% DMSO. A digest of the protocol: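 HepG2.117 cells (stable genotype D HBV, Tet-off) seeded without doxycycline, treated next day with 9-point 4-fold dilutions in 2% DMSO for 3 days at 37° C. Intracellular HBV DNA quantified by qPCR against a standard curve; viability by CellTiter-Glo ATP. EC50, EC90, CC50 from variable-slope dose-response fits versus DMSO control.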
A general note: Real-time PCR tracks product formation cycle by cycle.

Turning to `CNC(=O)c1ccc(-n2c(=O)c3c(n4ncc(CC5CC5)c24)CN(C(=O)c2ccc(Br)c(Cl)c2)[C@@H](C)C3)cc1` (stereo in doubt) [Compound 22b, N-methyl-4-[rac-(11S)-12-[4-bromo-3-chlorobenzoyl]-5-(cyclopropylmethyl)-11-methyl-8-oxo-2,3,7,12-tetrazatricyclo[7.4.0.0^2,6]trideca-1(9),3,5-trien-7-yl]benzamide], the EC50 is less than 0.05 µM.

Molecule `C[C@@H]1Cc2c(n3ncc(Cc4ccccc4)c3n(-c3ccc(-n4nnnc4C(F)(F)F)cc3)c2=O)CN1C(=O)c1ccc(Br)c(C(F)(F)F)c1` (stereo in doubt) [Compound 92a, rac-(11R)-5-benzyl-12-[4-bromo-3-(trifluoromethyl)benzoyl]-11-methyl-7-[4-[5-(trifluoromethyl)tetrazol-1-yl]phenyl]-2,3,7,12-tetrazatricyclo[7.4.0.0^2,6]trideca-1(9),3,5-trien-8-one] yielded a half-maximal effective concentration (EC50) of less than 0.05 µM.

`CC(C)Cc1cnn2c3c(c(=O)n(-c4ccc(-c5n[nH]c(=O)n5C)cc4)c12)C[C@H](C)N(C(=O)c1ccc(Br)c(C(F)(F)F)c1)C3` (stereo in doubt) [Compound 81b, rac-(11S)-12-[4-bromo-3-(trifluoromethyl)benzoyl]-5-isobutyl-11-methyl-7-[4-(4-methyl-5-oxo-1H-1,2,4-triazol-3-yl)phenyl]-2,3,7,12-tetrazatricyclo[7.4.0.0^2,6]trideca-1(9),3,5-trien-8-one] returned a 50% effective concentration (EC50) of 0.05 to 0.5 µM.

In turn, `CNC(=O)c1ccc(-n2c(=O)c3c(n4ncc(CC(C)C)c24)CN(C(=O)c2ccc(Br)c(Cl)c2)[C@@H](C)C3)cc1` (stereo in doubt) [Compound 55b, N-methyl-4-[rac-(11S)-12-(4-bromo-3-chloro-benzoyl)-5-isobutyl-11-methyl-8-oxo-2,3,7,12-tetrazatricyclo[7.4.0.0^2,6]trideca-1(9),3,5-trien-7-yl]benzamide] registered a half-maximal effective concentration (EC50) of 0.05 to 0.5 µM.

Molecule `C[C@H]1Cc2c(n3ncc(Cc4ccccc4)c3n(-c3ccc(-n4ccc(C(F)(F)F)n4)cc3)c2=O)CN1C(=O)c1ccc(Br)c(C(F)(F)F)c1` (stereo in doubt) [Compound 70b, rac-(11S)-5-benzyl-12-[4-bromo-3-(trifluoromethyl)benzoyl]-11-methyl-7-[4-[3-(trifluoromethyl)pyrazol-1-yl]phenyl]-2,3,7,12-tetrazatricyclo[7.4.0.0^2,6]trideca-1(9),3,5-trien-8-one] registered a 50% effective concentration (EC50) of 0.5 to 5 µM.

`CNc1n[nH]c2cc(-n3c(=O)c4c(n5ncc(CC6CC6)c35)CN(C(=O)c3ccc(Br)c(C(F)(F)F)c3)CC4)ccc12` [Compound 28, 12-[4-bromo-3-(trifluoromethyl)benzoyl]-5-(cyclopropylmethyl)-7-[3-(methylamino)-1H-indazol-6-yl]-2,3,7,12-tetrazatricyclo[7.4.0.0^2,6]trideca-1(9),3,5-trien-8-one] had a half-maximal effective concentration (EC50) of less than 0.05 µM.

`C[C@H]1Cc2c(n3ncc(CC4CCC4)c3n(-c3ccc(-c4nncn4C)cc3)c2=O)CN1C(=O)c1ccc(Cl)c(C(F)(F)F)c1` (stereo in doubt) [Compound 51b, rac-(11S)-12-[4-chloro-3-(trifluoromethyl)benzoyl]-5-(cyclobutylmethyl)-11-methyl-7-[4-(4-methyl-1,2,4-triazol-3-yl)phenyl]-2,3,7,12-tetrazatricyclo[7.4.0.0^2,6]trideca-1(9),3,5-trien-8-one] displayed a concentration giving a half-maximal response (EC50) of 0.5 to 5 µM.

Regarding `CNC(=O)c1cnc(-n2c(=O)c3c(n4ncc(CC(C)C)c24)CN(C(=O)c2ccc(Br)c(C(F)(F)F)c2)[C@H](C)C3)cn1` (stereo in doubt) [Compound 89a, N-methyl-5-[rac-(11R)-12-[4-bromo-3-(trifluoromethyl)benzoyl]-5-isobutyl-11-methyl-8-oxo-2,3,7,12-tetrazatricyclo[7.4.0.0^2,6]trideca-1(9),3,5-trien-7-yl]pyrazine-2-carboxamide], the EC50 was less than 0.05 µM.

`Cn1cnnc1-c1ccc(-n2c(=O)c3c(n4ncc(Cc5ccccc5)c24)CN(C(=O)c2ccc(Br)c(C(F)(F)F)c2)CC3)cc1` [Compound 25, 5-benzyl-12-[4-bromo-3-(trifluoromethyl)benzoyl]-7-[4-(4-methyl-1,2,4-triazol-3-yl)phenyl]-2,3,7,12-tetrazatricyclo[7.4.0.0^2,6]trideca-1(9),3,5-trien-8-one] had an EC50 of less than 0.05 µM.

For `C[C@@H]1Cc2c(n3ncc(Cc4ccccc4)c3n(-c3ccc(-n4ccc(C(F)(F)F)n4)cc3)c2=O)CN1C(=O)c1ccc(Br)c(C(F)(F)F)c1` (stereo in doubt) [Compound 70a, rac-(11R)-5-benzyl-12-[4-bromo-3-(trifluoromethyl)benzoyl]-11-methyl-7-[4-[3-(trifluoromethyl)pyrazol-1-yl]phenyl]-2,3,7,12-tetrazatricyclo[7.4.0.0^2,6]trideca-1(9),3,5-trien-8-one], the concentration for a half-maximal effect (EC50) was in the range of 0.05 to 0.5 µM.

On to `CNC(=O)c1cnc(-n2c(=O)c3c(n4ncc(Cc5ccccc5)c24)CN(C(=O)c2ccc(Br)c(C(F)(F)F)c2)[C@H](C)C3)cn1` (stereo in doubt) [Compound 73a, N-methyl-5-[rac-(11R)-5-benzyl-12-[4-bromo-3-(trifluoromethyl)benzoyl]-11-methyl-8-oxo-2,3,7,12-tetrazatricyclo[7.4.0.0^2,6]trideca-1(9),3,5-trien-7-yl]pyrazine-2-carboxamide], for which the EC50 was less than 0.05 µM.

In the case of `Cc1cnn(-c2ccc(-n3c(=O)c4c(n5ncc(Cc6ccccc6)c35)CN(C(=O)c3ccc(Br)c(C(F)(F)F)c3)[C@H](C)C4)cc2)n1` (stereo in doubt) [Compound 79a, rac-(11R)-5-benzyl-12-[4-bromo-3-(trifluoromethyl)benzoyl]-11-methyl-7-[4-(4-methyltriazol-2-yl)phenyl]-2,3,7,12-tetrazatricyclo[7.4.0.0^2,6]trideca-1(9),3,5-trien-8-one], the 50% effective concentration (EC50) is less than 0.05 µM.

`CC(C)Cc1cnn2c3c(c(=O)n(-c4ccc(-c5cnnn5C)cc4)c12)C[C@@H](C)N(C(=O)c1ccc(Br)c(C(F)(F)F)c1)C3` (stereo in doubt) [Compound 102a, rac-(11R)-12-[4-bromo-3-(trifluoromethyl)benzoyl]-5-isobutyl-11-methyl-7-[4-(3-methyltriazol-4-yl)phenyl]-2,3,7,12-tetrazatricyclo[7.4.0.0^2,6]trideca-1(9),3,5-trien-8-one]: the 50% effective concentration (EC50) is less than 0.05 µM.

`Cc1cnn(-c2ccc(-n3c(=O)c4c(n5ncc(Cc6ccccc6)c35)CN(C(=O)c3ccc(Br)c(C(F)(F)F)c3)[C@@H](C)C4)cc2)n1` (stereo in doubt) [Compound 79b, rac-(11S)-5-benzyl-12-[4-bromo-3-(trifluoromethyl)benzoyl]-11-methyl-7-[4-(4-methyltriazol-2-yl)phenyl]-2,3,7,12-tetrazatricyclo[7.4.0.0^2,6]trideca-1(9),3,5-trien-8-one]: the EC50 was 0.05 to 0.5 µM.

On to `C#CCc1cnn2c3c(c(=O)n(-c4ccc(C(=O)NC)cc4)c12)C[C@H](C)N(C(=O)c1ccc(Br)c(C(F)(F)F)c1)C3` (stereo in doubt) [Compound 78b, N-methyl-4-[rac-(11S)-12-[4-bromo-3-(trifluoromethyl)benzoyl]-11-methyl-8-oxo-5-prop-2-ynyl-2,3,7,12-tetrazatricyclo[7.4.0.0^2,6]trideca-1 (9),3,5-trien-7-yl]benzamide], for which the EC50 is 0.05 to 0.5 µM.

What is called EC50 is the midpoint of the concentration-response curve. A low value points to a more potent agent.
